Assay results from ChEMBL document CHEMBL6153098, “Immunomodulatory Potential of a Bibenzyl-dihydrophenanthrene Derivative Isolated from Calanthe cardioglossa” (J Nat Prod, 2025).
Activity calls are given as the source filed them. The rule behind the calls is not given here.

What was measured:
THP-1 [1] = experiment: Immunomodulatory activity in human THP-1 cells assessed as reduction in LPS-induced TNF-alpha production at 10 uM incubated for 4 hrs by ELISA assay; format: functional, cell-based
THP-1 [2] = experiment: Cytotoxicity against human THP-1 cells assessed as cell viability at 10 uM incubated for 4 hrs by PrestoBlue cell viability assay; format: toxicity, cell-based; settings: thp-1, 4 h
PBMC = experiment: Immunomodulatory activity in multiple sclerosis pateint-derived human PBMC cells assessed as reduction in LPS-induced TNF-alpha production in CD14+ monocytes at 10 uM incubated for 4 hrs by flow cytometry assay; format: functional, cell-based

Row | Structure (SMILES) | Activity (THP-1 [1]) | Activity (THP-1 [2]) | Activity (PBMC)
1 | COc1cc(O)cc(CCc2cccc(O)c2)c1 [BATATASIN III] | Active | Non-toxic | –
2 | COc1cc(O)cc2c1-c1cc(-c3c(O)cc(OC)c4c3CCc3cc(O)ccc3-4)c(O)cc1CC2 | – | Non-toxic | –
3 | COc1cc(O)c2c(c1)CCc1cc(O)c(-c3c(O)cc(OC)c4c3CCc3cc(O)ccc3-4)cc1-2 | Active | Non-toxic | –
4 | COc1cc(O)cc(CCc2ccc(O)c(OC)c2)c1 [GIGANTOL] | Active | Non-toxic | –
5 | COc1cc(O)cc2c1-c1ccc(O)cc1CC2 | inactive | Non-toxic | –
6 | COc1cc(C2Oc3cc(OC)c4c(c3C2COC(C)=O)CCc2cc(O)ccc2-4)ccc1O (stereo unspecified) | – | Non-toxic | –
7 | COc1cccc(CCc2cc(OC)cc(O)c2-c2cc3c(cc2O)CCc2cc(OC)cc(O)c2-3)c1 | Active; Compound Exhibited The Most Pronounced Activity | Non-toxic | Active
8 | O=c1c2ccccc2ncn1-c1ccccc1O | – | Non-toxic | –
9 | COc1cc(O)c2c(c1)CCc1cc(O)ccc1-2 | Active | – | –
10 | COc1cc([C@H]2Oc3cc4c(cc3[C@@H]2CO)-c2c(cc(O)cc2OC)CC4)ccc1O | – | Non-toxic | –
